Results taken from PMC8400257, “2-Phenoxy-3-Trichloromethylquinoxalines Are Antiplasmodial Derivatives with Activity against the Apicoplast of Plasmodium falciparum” (Pharmaceuticals, 2021).
Entries after “also recorded” stand apart in the source; their conditions may differ.

What was measured:
[1] = system: S. typhimurium strains (TA97a, TA98, TA100, TA102); test: Ames test; type: cell-based, Salmonella typhimurium; conditions: 48 h; 5 mM and 25 mM, w/o and w/ S9 mix; four S. typhimurium strains
Procedure: Nevertheless, the evaluation of the mutagenicity of compound (3i) was carried out using the Ames test on four S. typhimurium strains at 5 mM and 25 mM (four doses per concentrations: 2, 3, 4, 5 µL/plate for assay without S9 mix and 4, 6, 8, 10 µL/plate for assay with S9 mix).
Compounds were assessed for mutagenicity by a modified version of the liquid incubation assay of the classical Ames test at five concentrations (25–125 nM). Salmonella tester strains (TA97a: Acridine ICR191, TA98: 2,4,7 trinitrofluorenone, TA100: Sodium Azide and TA102: Mitomycine C) as positive control w/o S9 mix and benzo[alpha]pyrene as positive control w/S9 mix) were grown overnight in a nutrient broth n_2 (Oxoid, Dardilly, France). After this period, products dissolved in DMSO (Sigma) were added to 0.1 mL of culture and incubated for 1 h at 37 °C with shaking. Each sample was assayed in duplicate. After incubation, 2 mL of molten top agar were mixed gently with the pre-incubated solution and poured onto Vogel–Bonner minimal agar plates. After 48 h at 37 °C, the number of spontaneous and drug-induced revertants per plate was determined for each dose with a laser bacterial colony counter (laser bacterial colony counter 500A, Interscience). A product was considered mutagenic when it induced a two-fold increase in the number of revertants, compared with the spontaneous frequency (negative control). […]

HepG2 cell line = test: In vitro alkaline comet assay; type: cell-based, human
Procedure: The human hepatocarcinoma cell line HepG2 was obtained from the American Type Culture Collection (ATCC, ref. HB-8065). Cells were cultured in Eagle’s minimum essential medium (EMEM, ref. ATCC®® 30-2003TM) and supplemented with 10% heat-inactivated foetal bovine serum, 100 U/mL penicillin, and 0.1 mg/mL streptomycin (all from Gibco). Cells were maintained at 37 °C in a humidified atmosphere with 5% CO2 and used in passage number 11 to 15. Two concentrations of the compound 3i (3.2 and 16 µM) were tested at 2 different times of incubation (2 and 72 h). Briefly, HepG2 cells were seeded at 1.13 × 10^5 cells/mL in 6-well plates (3 mL of cell suspension per well) and incubated at 37 °C in a humidified atmosphere with 5% CO2. After 24 and 94 h of incubation, cells were treated with different concentrations of the compound or the vehicle (0.5% dimethylsulfoxide, DMSO) for 72 and 2 h, respectively. Additionally, in the 2 h treatment plate, cells in an additional well were treated with 1 mM MMS as positive control for the comet assay. After treatment, medium was removed from the wells and cells were washed with phosphate buffered saline (PBS). Finally, cells were trypsinized and trypsin was neutralized with fresh medium. From this point, cells were kept ice-cold to avoid DNA repair.
The standard alkaline comet assay was employed for the detection of DNA strand breaks (SBs) and alkali-labile sites (ALS) in cells treated with molecule 3i. Trypsinized HepG2 cells were centrifuged at 125 × g for 5 min at 4 °C and resuspended in cold PBS at 1 x 10^6 cells/mL. For the preparation of the agarose gels, 30 µL of cell suspension were mixed with 140 µL of 1% low melting point agarose in PBS at 37 °C and 2 aliquots of 70 µL of cell/agarose mixture were placed on agarose-precoated microscope slides. Each droplet was covered with a 20 × 20 mm coverslip and, after 2–3 min on a cold metal plate, the coverslips were removed. Then, slides were immersed in lysis solution (2.5 M NaCl, 0.1 M Na2EDTA, 0.01 M Tris base, pH 10, and 1% Triton X-100) at 4 °C for 1 h. After lysis, slides were transferred to the electrophoresis tank and incubated for 40 min at 4 °C in the electrophoresis solution (0.3 M NaOH, 1 mM Na2EDTA, pH > 13) to allow DNA unwinding. After that, electrophoresis was carried out at 1 V/cm for 20 min (4 °C). Then, gels were neutralized and washed by immersing the slides in PBS for 10 min and distilled water for another 10 min (both at 4 °C). Gels were then air-dried at room temperature. Comets were stained by adding 30 µL of […] of 4,6- diamidino-2-phenylindole (DAPI) on top of each gel and placing 22 × 22 mm coverslips on top. Slides were incubated with DAPI at room temperature for 30 min before the analysis. The semi-automated image analysis system Comet Assay IV (Instem, Stone, UK) was used to evaluate 50 comets per gel (i.e., 100 comets/condition). The percentage of DNA in tail was the descriptor used for each comet.
The median percentage of DNA in tail for 50 comets was calculated for each of the duplicate gels in each experiment, and the mean of the two medians were then calculated. The mean percentage of DNA in tail of 3 independent experiments and the standard deviation (SD) were calculated.

## O=[N+]([O-])c1ccc(Oc2nc3ccccc3nc2C(Cl)(Cl)Cl)cc1 [3i, 2-(4-Nitrophenoxy)-3-trichloromethylquinoxaline]
[1]
  Ames test result (mutagenicity): not genotoxic; also recorded: not mutagenic in vitro; also recorded: negative
HepG2 cell line; HepG2, 3.2 and 16 µM, short (2 h) or long (72 h) exposition
  In vitro comet assay: DNA strand breaks or alkali labile sites (genotoxicity): not genotoxic; also recorded: did not induce DNA strand breaks or alkali labile sites
HepG2 cell line; HepG2, 2 h, 3.2 µM
  In vitro comet assay result: negative
HepG2 cell line; HepG2, 2 h, 16 µM
  In vitro comet assay result: negative
HepG2 cell line; HepG2, 72 h, 3.2 µM
  In vitro comet assay result: negative
HepG2 cell line; HepG2, 72 h, 16 µM
  In vitro comet assay result: negative
